Measurements: patent US20150306090A1, “ORALLY ADMINISTERED MEDICAL COMPOSITION” (ASTELLAS PHARMA INC., priority 2012, published 2015)
Converted amounts (≈) assume the structure as drawn.

Assay: physchem
Format: physicochemical
Description: Further, the current product (Vesicare (registered trademark)) has been placed on the market, as a drug-immediate-release formulation. Furthermore, although the active ingredient is not the same, a bi-layered tablet comprising a modified release portion containing tamsulosin or a pharmaceutically acceptable salt thereof, and an immediate release portion containing solifenacin or a pharmaceutically acceptable salt thereof, is known (Patent literature 7).

## O=C(O[C@H]1CN2CCC1CC2)N1CCc2ccccc2[C@@H]1c1ccccc1 [solifenacin, (R)-quinuclidin-3-yl (S)-1-phenyl-1,2,3,4-tetrahydroisoquinoline-2-carboxylate]
pH 6.8, aqueous buffer
  solubility: 430 mg/mL (≈ 1190 mM)
water
  solubility: 610 mg/mL (≈ 1680 mM)
